Consider ten molecules from US11999747B2, “Furoquinolinediones as inhibitors of TDP2” (THE UNITED STATES OF AMERICA, AS REPRESENTED BY THE …, priority 2015, dated 2024).

In one assay the target is T1, recombinant human TDP2 (Homo sapiens, UniProt O95551).
T1 sequence (O95551 1-362): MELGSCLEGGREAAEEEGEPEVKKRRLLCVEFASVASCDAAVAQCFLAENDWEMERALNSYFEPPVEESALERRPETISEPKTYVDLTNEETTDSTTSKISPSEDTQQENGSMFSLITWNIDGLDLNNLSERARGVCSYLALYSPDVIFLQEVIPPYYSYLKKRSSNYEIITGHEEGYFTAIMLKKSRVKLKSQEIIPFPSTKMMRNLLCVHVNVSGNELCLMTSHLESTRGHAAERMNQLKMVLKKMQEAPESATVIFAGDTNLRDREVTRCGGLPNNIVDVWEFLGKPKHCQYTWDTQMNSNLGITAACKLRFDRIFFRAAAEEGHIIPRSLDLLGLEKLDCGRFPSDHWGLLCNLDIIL
The assay is described as follows: Recombinant Tdp2 assay (gel-based, 18-mer ssDNA substrate). Type of assay: biochemical. The following applies: recombinant human TDP2, 25 pM, 15 min, room temperature; read-out: REC TDP2. The procedure: TDP2 reactions were carried out as described previously (Example 52) with the following modifications. The 18-mer single-stranded oligonucleotide DNA substrate (α^32P-cordycepin-3′-labeled) was incubated at 1 nM with 25 pM recombinant human TDP2 in the absence or presence of inhibitor for 15 min at room temperature in a buffer containing 50 mM Tris-HCl, pH 7.5, 80 mM KCl, 5 mM MgCl2, 0.1 mM EDTA, 1 mM DTT, 40 μg/mL BSA, and 0.01% Tween 20. Reactions were terminated and treated similarly to WCE and recombinant TDP1 reactions (see Examples 52 and 53).
(§1) All compounds were prepared by the methods shown in Examples 1 to 50. Routine changes in starting materials and reaction conditions, readily apparent to those of skill in the art, were used to make the particular compounds disclosed in Table 1. […] A standard Tdp2 inhibition assay, such as the assay of Example 53, is used to determine the IC50's for the compounds. LC methods are given in the General Methods section.

A further assay addresses T2, human TDP2 (hTDP2) (Homo sapiens, UniProt O95551).
T2 construct: expressed in transfected cells; host or cells: DT40 (chicken) TDP1-/- knockout cells complemented with human TDP2; whole cell extract
T2 sequence (O95551 1-362): T1 sequence (O95551 1-362)
Description: Whole cell extract Tdp2 assay (DT40 TDP1-/- cells complemented with human TDP2). Type of assay: biochemical. The conditions noted are these: whole cell extract 4 μg/mL of DT40 cells expressing hTDP2, 15 min, room temperature; read-out: WCE hTDP2. The procedure: DT40 knockout cells (1×10^7) for Tdp1 (TDP1−/−) complemented with human TDP2 (hTDP2) were collected, washed, and centrifuged. Cell pellets were then lysed and stored similarly to hTDP1 extracts (see above). The 18-mer single-stranded oligonucleotide was incubated at 1 nM with 4 μg/mL of whole cell extracts in the absence or presence of inhibitor for 15 min at room temperature in the WCE buffer containing 50 mM Tris HCl, pH 7.5, 80 mM KCl, 5 mM MgCl2, 2 mM EDTA, 1 mM DTT, 40 μg/mL BSA, and 0.01% Tween-20. Reactions were terminated by the addition of 1 volume of gel loading buffer [99.5% (v/v) formamide, 5 mM EDTA, 0.01% (w/v) xylene cyanol, and 0.01% (w/v) bromophenol blue]. Samples were then treated and run similarly to the hTDP1 whole cell extract (Example 51).
as §1

For `CCOC(=O)c1c(C)oc2c1C(=O)c1ncccc1C2=O` [Compound 2, Ethyl 2-methyl-4,9-dioxo-4,9-dihydrofuro[2,3-g]quinoline-3-carboxylate], the IC50 on recombinant human TDP2 fell in the range of 1 to 12 µM; at human TDP2 (hTDP2), 12 to 37 µM.
For the molecule `Cc1oc2c(c1C(=O)OCCOCCO)C(=O)c1ncccc1C2=O` [Compound 36], the IC50 at recombinant human TDP2 and on human TDP2 (hTDP2) was 12 to 37 µM in each case.
On to `CC(=O)N1CCN(c2ccc(OC(=O)c3c(C)oc4c3C(=O)c3ncccc3C4=O)cc2)CC1` [Compound 61], for which the IC50 at recombinant human TDP2 is 37 to 111 µM; on human TDP2 (hTDP2) it was 1 to 12 µM.
In the case of `Cc1oc2c(c1C(=O)Oc1ccc(Br)cc1)C(=O)c1ncccc1C2=O` [Compound 31], the IC50 at recombinant human TDP2 and on human TDP2 (hTDP2) was 12 to 37 µM in each case.
Turning to `C#CCCOC(=O)c1c(C)oc2c1C(=O)c1ncccc1C2=O` [Compound 43], the IC50 at recombinant human TDP2 and at human TDP2 (hTDP2) was 12 to 37 µM in each case.
For `Cc1oc2c(c1C(=O)OCCCO)C(=O)c1ncccc1C2=O` [Compound 11], the IC50 was 12 to 37 µM at recombinant human TDP2 and 1 to 12 µM at human TDP2 (hTDP2).
In the same order, the values of `Cc1oc2c(c1C(=O)OC[C@H]1COC(C)(C)O1)C(=O)c1ncccc1C2=O` [Compound 38] are 1 to 12 µM and 1 to 12 µM.
In the same order, the values of `Cc1oc2c(c1C(=O)Oc1cccc(-c3cn(CCC(=O)O)nn3)c1)C(=O)c1ncccc1C2=O` [Compound 33] are 12 to 37 µM and 12 to 37 µM.
Take `Cc1oc2c(c1C(=O)OC[C@@H](O)CO)C(=O)c1ncccc1C2=O` [Compound 37]: the IC50 on recombinant human TDP2 is 1 to 12 µM; at human TDP2 (hTDP2), 12 to 37 µM.
In the same order, the values of `CCOC(=O)c1c(CBr)oc2c1C(=O)c1ncccc1C2=O` [Compound 63] are 12 to 37 µM and 1 to 12 µM.
